Target: Echovirus 9
Experiment: Inhibitory activity against Echovirus 9 using plaque reduction assay

- IC50: > 25 µM
SMILES: C[C@H](CCOc1ccc(-c2ccc(Cl)cc2)cc1)CCN1CCN(c2ccncc2)C1=O [1-[(S)-5-(4'-Chloro-biphenyl-4-yloxy)-3-methyl-pentyl]-3-pyridin-4-yl-imidazolidin-2-one]
